# Article PMC8097335, “A High‐Affinity Calmodulin‐Binding Site in the CyaA Toxin Translocation Domain is Essential for Invasion of Eukaryotic Cells” (Advanced Science, 2021)
# Experiments:
# [1] = Synchrotron radiation circular dichroism, alpha-helical content (Bestsel); format: physicochemical; conditions: 25 °C, far-UV SRCD
# Experimental: Synchrotron Radiation Circular Dichroism
# Synchrotron radiation circular dichroism (SRCD) was performed on the DISCO beamline of the synchrotron SOLEIL (Saint -Aubin, France) . Spectra were recorded at 25°C with an integration time of 1.2 s and a bandwidth of 1 nm with a resolution of 1 nm. A far-UV spectrum represents the average of four individual scans. QS cells (Hellma, France) with a pathlength of 20, 50, 100 or 200 μm (depending on final protein concentrations) were used to record spectra in the fa r -UV range (from 190 to 250 nm). CD spectra of peptides and proteins were measured in buffers A and B, 20% of trifluoroethanol (TFE), in the presence of SUVs (POPC :PO PG 8: 2) or Ca M. Secondary structure content was estimated using Bestsel software […]
# Table S8: Estimation of the α -helical content of P454-derived peptides. The secondary structure content is estimated using the on-line Bestsel software 17 available at http://bestsel.elte.hu/index.php. […]
# peptide in buffer A, in 20% TFE and in the presence of POPC POPG (molar ratio 8:2) at 2 mM lipid concentration. The far -UV CD spectra of several P454-derived peptides are shown […]
# [2] = Peptide titrations by SUVs followed by tryptophan fluorescence (solution-to-membrane partition); format: physicochemical
# Outline: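 Peptides were titrated with POPC:POPG (8:2) SUVs at 25°C, with tryptophan fluorescence excited at 280 nm and emission recorded 300–400 nm. The 330/370 nm intensity ratio, corrected for SUV baseline, was fitted to a partition model to obtain the solution-to-membrane partition coefficient KX.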
# [3] = Membrane permeabilization of ANTS/DPX-loaded LUVs
# Experimental: To monitor membrane permeabilization induced by peptides, ANTS (fluorophore probe) and
# DPX (quencher) were encapsulated into large unilamellar vesicles (LUVs). The LUVs were
# prepared at a concentration of 10 mM lipid at a POPC:PO PG molar ratio of 8:2 containing 20
# mM ANTS and 60 mM DPX. The multilamellar vesicle suspension was extrudedthrough 0.4-
# and 0.2 μm polycarbonate filters to produce LUVs. The unencapsulated ANT S a nd DPX we re
# removed by gel filtration with a 5 mL Sephadex G -25 column (GE Healthcare Life Sciences ).
# For permeabilization assays, LUVs were incubated in buffer A at 0.45 mM lipid
# concentration at 25°C in a 101-QS cuvette (Hellma, France) and under constant stirring.
# excitation wavelength was set at 390 nm and the emission of ANTS was continuously
# measured at 515 nm. The maximum intensity of permeabilization, corresponding to the
# maximum recovery of ANTS fluorescence, was measured after addition of 0.1% of Triton
# X100. The concentration of membrane-bound peptide s required to induce the recovery of half
# intensity of the ANTS fluorescence (C P1/2) was extracted from the permeabilization intensity
# a s a function of peptide concentration 1.
# LUVs were incubated in buffer B at a lipid concentration of 0.45 mM.
# After a few seconds of permeabilization,
# holo-Ca M wa s added t o t he solution at a peptide:Ca M molar ratio of 1:3. EDT A wa s
# subsequently added in excess to chelate calcium and convert holo -CaM to apo -C a M .
# [4] = Sedimentation velocity analytical ultracentrifugation; format: physicochemical; conditions: 57 µM peptide alone, 20 °C, buffer B
# Description: 400 nm at a scan rate of 100 nm/min, with an excitation wavelength of 280 nm. Fluorescence emission spectra were corrected for SUV or CaM baselines . Fluorescence intensity ratio at 330 nm over 370 nm was use d to measure the partition coefficient (K X) of peptides between the solution andmembrane s 1, 12 and the affinity (K d) of peptides for CaM 13.
# Determination of partition coefficient KX and dissociation constant Kd from […]
# The partition coefficient KX is defined as the ratio of protein in the lipid (PL) and in buffer […]
# (PW) pha se s 12, 14, expressed by: KKXX = [LL ]? , giving[PPWW ] [PPWW ]= [WW], where [W] the […]
# concentration of water (55.5 M) and [L] the lipid concentration. […]
# The dissociation constant, Kd, is obtained from titration experiments of the P454-derived peptides by CaM and is expressed as follows: KK dd = [PP ]∗[CCCCCC ][PP:CCCCCC] , given KKdd[CCCCCC]= [PP ][PP :CCCCCC]and the fraction of complex, fP:CaM, i s: ffPP:CCCCCC = [PP :CCCCCC ][PP:CCCCCC]+[PP]= 11+ [PP ]= 11+ KKdd. […]
# ratio 1:1 (at 70 µM each). […] Detection of protein concentration as a function of radial position and time was monitored with the ProteomeLab software (Beckman Coulter, […]
# Brea, CA, USA) by both absorbance at 280 nm and interferometry. […] SV scans were analyzed using the continuous size distribution model c(s) of the software Sedfit 15. […]
smiles,measurement,setting,value
CC[C@H](C)[C@H](NC(=O)[C@H](C)NC(=O)[C@H](Cc1c[nH]cn1)NC(=O)[C@@H](NC(=O)[C@H](CC(C)C)NC(=O)[C@H](CCCNC(=N)N)NC(=O)[C@H](CCC(N)=O)NC(=O)[C@H](C)NC(=O)[C@H](C)NC(=O)[C@H](C)NC(=O)[C@@H](NC(=O)[C@H](C)NC(=O)[C@H](CCC(N)=O)NC(=O)[C@H](C)NC(=O)CNC(=O)[C@H](CCC(N)=O)NC(=O)[C@H](CC(C)C)NC(=O)[C@H](C)NC(=O)[C@H](CCCNC(=N)N)NC(=O)[C@H](CCC(N)=O)NC(=O)CNC(=O)[C@H](Cc1c[nH]c2ccccc12)NC(=O)[C@H](Cc1c[nH]cn1)NC(=O)[C@H](C)NC(=O)[C@H](CO)NC(=O)[C@H](C)NC(C)=O)C(C)C)C(C)C)C(=O)N[C@@H](C)C(=O)N[C@@H](CC(C)C)C(=O)N[C@@H](CCSC)C(=O)N[C@H](C(=O)N[C@@H](CCC(N)=O)C(N)=O)[C@@H](C)O [P454],"alpha-helical content, TFE 20%",[1]; 20% TFE,60 ± 2%
same,"alpha-helical content, POPC:POPG 8:2",[1]; SUVs POPC:POPG 8:2 at 2 mM lipid,50 ± 1%
same,"alpha-helical content, Solution",[1]; buffer A,17 ± 2%
same,Partition coefficient KX,"[2]; POPC:POPG 8:2 SUVs, buffer A pH 7.4, 25 °C, tryptophan fluorescence ratio 330/370 nm, S.D. within ± 10%",790 ×10^3
same,Partition coefficient Kx,[2]; POPC:POPG 8:2 membranes,790 000
same,Kd,"[2]; converted from KX: [W]/KX = Kd, [W] = 55.5 M, read-out: Kd for POPC:POPG 8:2",70 µM
same,∆GKx for POPC POPG 8:2,"[2]; ∆GKx = -RT Ln Kx, S.D. within ± 10%",-8 kcal/mol
same,"CP1/2, peptide concentration required to induce recovery of 50% of ANTS fluorescence intensity upon LUVs permeabilization","[3]; ANTS:DPX LUVs POPC:POPG 8:2, 0.45 mM lipid, buffer A pH 7.4, 25 °C, ex 390/em 515 nm, S.D. ± 5%",0.07 µM
same,Effect of holo-CaM addition on peptide-induced vesicle permeabilization,"[3]; LUVs 0.45 mM lipid, buffer B (2 mM CaCl2), peptide:CaM molar ratio 1:3",immediately stopped
same,Sedimentation coefficient,[4],0.65 S
